Article PMC6162447, “Engineering Gain-of-Function Analogues of the Spider Venom Peptide HNTX-I, A Potent Blocker of the hNaV1.7 Sodium Channel” (Toxins, 2018)
“Also recorded” adds a separate entry of the source. Bridge positions count the residues as written; N and C are the ends. Peptide text beside a SMILES is read from it.

Columns and labels:
hNaV1.7 = molecular target: T1, hNaV1.7 (Homo sapiens, UniProt Q15858); test: Whole-cell patch clamp on hNaV1.7 expressed in HEK 293 cells; format: cell-based; conditions: for IC50: HEK 293 cells transfected with hNaV1.7 plus human β1 and β2 subunits, room temperature (20–25 °C), 50 ms depolarization to −10 mV from holding −100 mV, mean ± SEM
T1 construct: expressed in transfected cells; host or cells: HEK 293
T1 sequence (O60939 30-215): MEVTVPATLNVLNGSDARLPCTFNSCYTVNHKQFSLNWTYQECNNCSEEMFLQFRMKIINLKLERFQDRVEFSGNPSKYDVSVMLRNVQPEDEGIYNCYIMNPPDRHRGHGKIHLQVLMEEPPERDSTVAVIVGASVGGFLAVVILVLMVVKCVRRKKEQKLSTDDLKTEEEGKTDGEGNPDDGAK
T1 sequence (Q07699 19-218, further chain): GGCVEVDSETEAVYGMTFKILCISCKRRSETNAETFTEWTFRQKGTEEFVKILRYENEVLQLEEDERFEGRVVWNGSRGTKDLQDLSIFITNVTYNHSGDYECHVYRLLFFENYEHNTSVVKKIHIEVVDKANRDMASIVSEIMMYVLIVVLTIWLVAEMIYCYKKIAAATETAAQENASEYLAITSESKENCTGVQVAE
T1 sequence (Q15858 other isoform, or with tags, fused parts or gaps): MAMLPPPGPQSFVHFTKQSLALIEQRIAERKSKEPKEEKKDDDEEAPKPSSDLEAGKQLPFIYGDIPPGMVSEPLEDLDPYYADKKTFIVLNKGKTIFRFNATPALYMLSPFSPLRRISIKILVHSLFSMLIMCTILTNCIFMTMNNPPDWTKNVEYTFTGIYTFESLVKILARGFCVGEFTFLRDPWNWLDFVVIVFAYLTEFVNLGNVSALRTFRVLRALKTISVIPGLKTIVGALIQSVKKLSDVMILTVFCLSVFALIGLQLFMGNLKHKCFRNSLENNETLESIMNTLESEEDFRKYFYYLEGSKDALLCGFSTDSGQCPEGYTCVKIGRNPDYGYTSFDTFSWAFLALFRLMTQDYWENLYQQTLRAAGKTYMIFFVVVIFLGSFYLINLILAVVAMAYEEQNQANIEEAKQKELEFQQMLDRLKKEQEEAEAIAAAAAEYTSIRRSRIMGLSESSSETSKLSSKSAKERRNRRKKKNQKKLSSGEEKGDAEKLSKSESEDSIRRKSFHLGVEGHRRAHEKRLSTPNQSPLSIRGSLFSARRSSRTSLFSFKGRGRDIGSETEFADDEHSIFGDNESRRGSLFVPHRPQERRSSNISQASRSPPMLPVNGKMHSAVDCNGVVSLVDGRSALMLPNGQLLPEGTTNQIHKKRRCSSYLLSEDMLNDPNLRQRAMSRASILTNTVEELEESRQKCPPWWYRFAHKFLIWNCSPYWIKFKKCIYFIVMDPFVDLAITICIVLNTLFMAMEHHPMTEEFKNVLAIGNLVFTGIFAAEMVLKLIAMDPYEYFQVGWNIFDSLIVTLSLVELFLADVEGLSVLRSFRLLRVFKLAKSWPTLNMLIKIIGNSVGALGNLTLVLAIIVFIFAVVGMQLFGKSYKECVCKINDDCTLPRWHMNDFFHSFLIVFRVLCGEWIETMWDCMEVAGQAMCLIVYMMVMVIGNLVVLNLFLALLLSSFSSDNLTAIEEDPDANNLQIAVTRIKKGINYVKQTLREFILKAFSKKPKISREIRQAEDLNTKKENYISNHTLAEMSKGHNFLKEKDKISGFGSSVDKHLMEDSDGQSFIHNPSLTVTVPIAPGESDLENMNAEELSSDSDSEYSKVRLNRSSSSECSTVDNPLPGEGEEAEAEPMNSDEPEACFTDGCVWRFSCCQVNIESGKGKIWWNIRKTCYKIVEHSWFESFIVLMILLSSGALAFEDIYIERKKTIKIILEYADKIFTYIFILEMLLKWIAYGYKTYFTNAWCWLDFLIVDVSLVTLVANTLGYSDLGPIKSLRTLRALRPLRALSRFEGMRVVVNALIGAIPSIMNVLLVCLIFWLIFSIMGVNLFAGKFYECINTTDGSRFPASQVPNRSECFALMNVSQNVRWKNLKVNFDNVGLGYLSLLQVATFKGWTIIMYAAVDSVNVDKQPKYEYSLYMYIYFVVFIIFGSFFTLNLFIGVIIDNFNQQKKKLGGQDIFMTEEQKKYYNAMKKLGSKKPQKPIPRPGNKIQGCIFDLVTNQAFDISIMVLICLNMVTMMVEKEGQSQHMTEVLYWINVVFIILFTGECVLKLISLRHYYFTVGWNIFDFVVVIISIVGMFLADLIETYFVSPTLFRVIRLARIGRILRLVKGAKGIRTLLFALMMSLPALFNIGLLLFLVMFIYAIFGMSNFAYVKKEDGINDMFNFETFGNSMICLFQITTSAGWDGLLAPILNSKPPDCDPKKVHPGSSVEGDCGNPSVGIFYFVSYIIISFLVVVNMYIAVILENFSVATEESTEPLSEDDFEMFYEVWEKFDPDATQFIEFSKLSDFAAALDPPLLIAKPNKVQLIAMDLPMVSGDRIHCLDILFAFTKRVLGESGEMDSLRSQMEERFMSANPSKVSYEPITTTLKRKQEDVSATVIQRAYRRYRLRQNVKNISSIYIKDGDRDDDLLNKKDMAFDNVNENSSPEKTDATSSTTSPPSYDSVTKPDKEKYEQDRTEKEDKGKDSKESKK
Procedure: We maintained human embryonic kidney (HEK) 293 cells at 37 °C in a humidified 5% CO2 incubator in Dulbecco’s Modified Eagle’s Medium (DMEM) supplemented with 10% fetal bovine serum (FBS), 2 mM L-glutamine, 100 units/mL penicillin and 100 µg/mL streptomycin. cDNA genes encoding rat Nav1.2 and mouse Nav1.6 were subcloned into the vectors pcDNA3.1, respectively. We subcloned the gene that encodes hNaV1.7 into the vector pcDNA3.1-mod. We transfected the hNaV1.7 channel (3 μg) together with plasmids β1- (1 μg) and β2-eGFP ([…]), which encode the human β1 and β2 subunits, and Nav1.2 and Nav1.6 together with eGFP in HEK 293 cells using Lipofectamine 2000 (Invitrogen, Carlsbad, CA, USA) per the manufacturer’s instructions.
We performed whole-cell recordings using an EPC 10 patch clamp platform (HEKA, Elektronik, Lambrecht, Germany) at room temperature (20–25 °C). We made suction pipettes with access resistance of 2.0–3.0 MΩ from borosilicate glass capillary tubes (VWR micropipettes; VWR Co., West Chester, PA, USA) using a 2-step vertical microelectrode puller (PC-10; Narishige Co., Ltd., Tokyo, Japan) and compensated for voltage errors using 80% serial-resistance compensation. The standard pipette solution contained (in mM): 140 CsCl, 10 NaCl, 1 ethylene glycol-bis (β-aminoethyl ether)-N,N,N′,N′-tetraacetic acid (EGTA), and 10 HEPES (pH 7.4). The bath solution contained (in mM): 140 NaCl, 2 CaCl2, 1 MgCl2, 5 KCl, 20 4-(2-hydroxyethyl)-1-piperazineethanesulfonic acid (HEPES) and 10 glucose (pH 7.4). We purchased all chemicals from Sigma-Aldrich (St. Louis, MO, USA) and dissolved them in water. Data were acquired using PATCHMASTER software version 2x73 (HEKA Elektronik Dr. Schulze GmbH, Lambrecht, Germany). We filtered macroscopic sodium currents at 5 kHz and sampled them at 20 kHz. We acquired voltage clamp recordings 5 min after establishing a whole-cell configuration to allow adequate equilibration between the micropipette solution and the cell interior. We elicited channel current by 50 milliseconds of depolarization potential to −10 mV from the holding voltage of −100 mV.
We analyzed the data using Igor Pro software version 6.10A (WaveMetrics, Lake Oswego, OR, USA), Sigmaplot software version 10 (Sigma, St. Louis, MO, USA), OriginPro software version 8 (OriginLab Corp., Northampton, MA, USA) and Prism software version 5 (GraphPad Software, San Diego, CA, USA). Concentration–response curves were fitted using the following Hill logistic equation:y = fmax − (fmax − fmin)/(1 + (x/IC50)^n)(1) where fmax and fmin respectively represent the channel’s maximum and minimum responses to toxins, fmin was set to 0, x represents toxin concentration and n is an empirical Hill coefficient. All quantitative results are presented as mean ± standard error of the mean (SEM).

[1] = system: mammalian voltage-gated sodium channels (VGSCs); conditions: including hNaV1.7; cited from earlier work
Description: Pain is a medical condition that interferes with normal human life and work and reduces human well-being worldwide. Human voltage-gated sodium channel NaV1.7 (hNaV1.7) is a compelling target that plays a key role in human pain signaling. […] We engineered analogues of HNTX-I based on sequence conservation in NaSpTx family 1. Substitution of Asn for Ser at position 23 or Asp for His at ... || Previously, we reported the identification of 33-residue peptide µ-TRTX-Hhn2b (HNTX-I), a member of NaSpTx family 1, from the venom of the spider Selenocosmia hainana. Although the amino acid sequence of this family is highly conserved, HNTX-I has shown weak affinity on insect sodium channels and no effect on mammalian voltage-gated sodium channels (VGSCs), unlike the majority of peptide toxins in NaSpTx family 1 [20]. In this study, we used HNTX-I as a framework and engineered analogues of it based on sequence conservation in the family. Ultimately, we engineered a gain-of-function analogue ...

insect sodium channels = conditions: cited from earlier work
Description: Previously, we reported the identification of 33-residue peptide µ-TRTX-Hhn2b (HNTX-I), a member of NaSpTx family 1, from the venom of the spider Selenocosmia hainana. Although the amino acid sequence of this family is highly conserved, HNTX-I has shown weak affinity on insect sodium channels and no effect on mammalian voltage-gated sodium channels (VGSCs), unlike the majority of peptide toxins in NaSpTx family 1 [20]. In this study, we used HNTX-I as a framework and engineered analogues of it based on sequence conservation in the family. Ultimately, we engineered a gain-of-function analogue ...

Row | SMILES | IC50 (hNaV1.7; n ≥ 3, SEM) [nM] | Effect on mammalian voltage-gated sodium channels (VGSCs) [1] | Affinity on insect sodium channels (insect sodium channels) | Activity on NaV1.7 at a concentration of 10 µM (hNaV1.7; 10 µM peptide, HEK 293 cells (Figure 2A–C)) | IC50 (hNaV1.7; n ≥ 3) [nM]
1 | CC(C)C[C@H](NC(=O)[C@H](CC(C)C)NC(=O)[C@@H](NC(=O)[C@H](CCCCN)NC(=O)[C@@H]1CSSC[C@@H]2NC(=O)[C@H](CCC(=O)O)NC(=O)[C@H](CC(N)=O)NC(=O)[C@H](CCCCN)NC(=O)CNC(=O)[C@@H]3CCCN3C(=O)[C@H](C(C)C)NC(=O)[C@@H]3CSSC[C@H](NC(=O)[C@H](C)NC(=O)[C@H](Cc4ccc(O)cc4)NC(=O)CNC(=O)[C@H](CO)NC(=O)[C@H](CSSC[C@H](NC(=O)[C@@H](N)CCC(=O)O)C(=O)N[C@@H](CCCCN)C(=O)NCC(=O)N[C@@H](Cc4ccccc4)C(=O)NCC(=O)N[C@@H](CCCCN)C(=O)N[C@@H](CO)C(=O)N3)NC2=O)C(=O)N[C@@H](CO)C(=O)N[C@@H](CO)C(=O)N[C@@H](CCCNC(=N)N)C(=O)N[C@@H](CC(=O)O)C(=O)N[C@@H](CCCCN)C(=O)N[C@@H](Cc2c[nH]c3ccccc23)C(=O)N1)C(C)C)C(=O)O [N23S] (H-ECKGFGKSCVPGKNECCSGYACSSRDKWCKVLL-OH; disulfide 2-17, 9-22, 16-29) | 435 ± 72 | – | – | – | –
2 | CC(C)C[C@H](NC(=O)[C@H](CC(C)C)NC(=O)[C@@H](NC(=O)[C@H](CCCCN)NC(=O)[C@@H]1CSSC[C@@H]2NC(=O)[C@H](CCC(=O)O)NC(=O)[C@H](CC(N)=O)NC(=O)[C@H](CCCCN)NC(=O)CNC(=O)[C@@H]3CCCN3C(=O)[C@H](C(C)C)NC(=O)[C@@H]3CSSC[C@H](NC(=O)[C@H](C)NC(=O)[C@H](Cc4ccc(O)cc4)NC(=O)CNC(=O)[C@H](CO)NC(=O)[C@H](CSSC[C@H](NC(=O)[C@@H](N)CCC(=O)O)C(=O)N[C@@H](CCCCN)C(=O)NCC(=O)N[C@@H](Cc4ccccc4)C(=O)NCC(=O)N[C@@H](CCCCN)C(=O)N[C@@H](CO)C(=O)N3)NC2=O)C(=O)N[C@@H](CO)C(=O)N[C@@H](CO)C(=O)N[C@@H](CCCNC(=N)N)C(=O)N[C@@H](Cc2c[nH]cn2)C(=O)N[C@@H](CCCCN)C(=O)N[C@@H](Cc2c[nH]c3ccccc23)C(=O)N1)C(C)C)C(=O)O [N23S–D26H] (H-ECKGFGKSCVPGKNECCSGYACSSRHKWCKVLL-OH; disulfide 2-17, 9-22, 16-29) | 79 ± 4 | – | – | – | –
3 | CC(C)C[C@H](NC(=O)[C@H](Cc1c[nH]c2ccccc12)NC(=O)[C@@H](NC(=O)[C@H](CCCCN)NC(=O)[C@@H]1CSSC[C@@H]2NC(=O)[C@H](CCC(=O)O)NC(=O)[C@H](CC(N)=O)NC(=O)[C@H](CCCCN)NC(=O)CNC(=O)[C@@H]3CCCN3C(=O)[C@H](C(C)C)NC(=O)[C@@H]3CSSC[C@H](NC(=O)[C@H](C)NC(=O)[C@H](Cc4ccc(O)cc4)NC(=O)CNC(=O)[C@H](CO)NC(=O)[C@H](CSSC[C@H](NC(=O)[C@@H](N)CCC(=O)O)C(=O)N[C@@H](CCCCN)C(=O)NCC(=O)N[C@@H](Cc4ccccc4)C(=O)NCC(=O)N[C@@H](CCCCN)C(=O)N[C@@H](CO)C(=O)N3)NC2=O)C(=O)N[C@@H](CO)C(=O)N[C@@H](CO)C(=O)N[C@@H](CCCNC(=N)N)C(=O)N[C@@H](Cc2c[nH]cn2)C(=O)N[C@@H](CCCCN)C(=O)N[C@@H](Cc2c[nH]c3ccccc23)C(=O)N1)C(C)C)C(=O)O [N23S–D26H–L32W] (H-ECKGFGKSCVPGKNECCSGYACSSRHKWCKVWL-OH; disulfide 2-17, 9-22, 16-29) | 71 ± 5 | – | – | – | –
4 | CC(C)C[C@H](NC(=O)[C@H](CC(C)C)NC(=O)[C@@H](NC(=O)[C@H](CCCCN)NC(=O)[C@@H]1CSSC[C@@H]2NC(=O)[C@H](CCC(=O)O)NC(=O)[C@H](CC(N)=O)NC(=O)[C@H](CCCCN)NC(=O)CNC(=O)[C@@H]3CCCN3C(=O)[C@H](C(C)C)NC(=O)[C@@H]3CSSC[C@H](NC(=O)[C@H](C)NC(=O)[C@H](Cc4ccc(O)cc4)NC(=O)CNC(=O)[C@H](CO)NC(=O)[C@H](CSSC[C@H](NC(=O)[C@@H](N)CCC(=O)O)C(=O)N[C@@H](CCCCN)C(=O)NCC(=O)N[C@@H](Cc4ccccc4)C(=O)NCC(=O)N[C@@H](CCCCN)C(=O)N[C@@H](CO)C(=O)N3)NC2=O)C(=O)N[C@@H](CC(N)=O)C(=O)N[C@@H](CO)C(=O)N[C@@H](CCCNC(=N)N)C(=O)N[C@@H](CC(=O)O)C(=O)N[C@@H](CCCCN)C(=O)N[C@@H](Cc2c[nH]c3ccccc23)C(=O)N1)C(C)C)C(=O)O [Native HNTX-I] (H-ECKGFGKSCVPGKNECCSGYACNSRDKWCKVLL-OH; disulfide 2-17, 9-22, 16-29 (inferred); N-terminus and C-terminus assumed) | – | negligible activity; also recorded: no effect | weak affinity | negligible activity | > 10000
